Experimental data from publication PMC10410761 (Proceedings of the National Academy of Sciences of the …, 2023).

Legend:
[1] = target: NaV1.7 (Rattus norvegicus, UniProt O08562); assay: Whole-cell voltage clamp, sodium currents in rat DRG neurons; type: cell-based; settings: Pitstop2 20 µM, vs AAV-SCR control
[2] = system: NaV1.7; assay: as above; type: cell-based; settings: Pitstop2 20 µM, 30 min before recording, rat DRG neurons

Sequence of NaV1.7 (Rattus norvegicus, UniProt O08562) (O08562 whole entry): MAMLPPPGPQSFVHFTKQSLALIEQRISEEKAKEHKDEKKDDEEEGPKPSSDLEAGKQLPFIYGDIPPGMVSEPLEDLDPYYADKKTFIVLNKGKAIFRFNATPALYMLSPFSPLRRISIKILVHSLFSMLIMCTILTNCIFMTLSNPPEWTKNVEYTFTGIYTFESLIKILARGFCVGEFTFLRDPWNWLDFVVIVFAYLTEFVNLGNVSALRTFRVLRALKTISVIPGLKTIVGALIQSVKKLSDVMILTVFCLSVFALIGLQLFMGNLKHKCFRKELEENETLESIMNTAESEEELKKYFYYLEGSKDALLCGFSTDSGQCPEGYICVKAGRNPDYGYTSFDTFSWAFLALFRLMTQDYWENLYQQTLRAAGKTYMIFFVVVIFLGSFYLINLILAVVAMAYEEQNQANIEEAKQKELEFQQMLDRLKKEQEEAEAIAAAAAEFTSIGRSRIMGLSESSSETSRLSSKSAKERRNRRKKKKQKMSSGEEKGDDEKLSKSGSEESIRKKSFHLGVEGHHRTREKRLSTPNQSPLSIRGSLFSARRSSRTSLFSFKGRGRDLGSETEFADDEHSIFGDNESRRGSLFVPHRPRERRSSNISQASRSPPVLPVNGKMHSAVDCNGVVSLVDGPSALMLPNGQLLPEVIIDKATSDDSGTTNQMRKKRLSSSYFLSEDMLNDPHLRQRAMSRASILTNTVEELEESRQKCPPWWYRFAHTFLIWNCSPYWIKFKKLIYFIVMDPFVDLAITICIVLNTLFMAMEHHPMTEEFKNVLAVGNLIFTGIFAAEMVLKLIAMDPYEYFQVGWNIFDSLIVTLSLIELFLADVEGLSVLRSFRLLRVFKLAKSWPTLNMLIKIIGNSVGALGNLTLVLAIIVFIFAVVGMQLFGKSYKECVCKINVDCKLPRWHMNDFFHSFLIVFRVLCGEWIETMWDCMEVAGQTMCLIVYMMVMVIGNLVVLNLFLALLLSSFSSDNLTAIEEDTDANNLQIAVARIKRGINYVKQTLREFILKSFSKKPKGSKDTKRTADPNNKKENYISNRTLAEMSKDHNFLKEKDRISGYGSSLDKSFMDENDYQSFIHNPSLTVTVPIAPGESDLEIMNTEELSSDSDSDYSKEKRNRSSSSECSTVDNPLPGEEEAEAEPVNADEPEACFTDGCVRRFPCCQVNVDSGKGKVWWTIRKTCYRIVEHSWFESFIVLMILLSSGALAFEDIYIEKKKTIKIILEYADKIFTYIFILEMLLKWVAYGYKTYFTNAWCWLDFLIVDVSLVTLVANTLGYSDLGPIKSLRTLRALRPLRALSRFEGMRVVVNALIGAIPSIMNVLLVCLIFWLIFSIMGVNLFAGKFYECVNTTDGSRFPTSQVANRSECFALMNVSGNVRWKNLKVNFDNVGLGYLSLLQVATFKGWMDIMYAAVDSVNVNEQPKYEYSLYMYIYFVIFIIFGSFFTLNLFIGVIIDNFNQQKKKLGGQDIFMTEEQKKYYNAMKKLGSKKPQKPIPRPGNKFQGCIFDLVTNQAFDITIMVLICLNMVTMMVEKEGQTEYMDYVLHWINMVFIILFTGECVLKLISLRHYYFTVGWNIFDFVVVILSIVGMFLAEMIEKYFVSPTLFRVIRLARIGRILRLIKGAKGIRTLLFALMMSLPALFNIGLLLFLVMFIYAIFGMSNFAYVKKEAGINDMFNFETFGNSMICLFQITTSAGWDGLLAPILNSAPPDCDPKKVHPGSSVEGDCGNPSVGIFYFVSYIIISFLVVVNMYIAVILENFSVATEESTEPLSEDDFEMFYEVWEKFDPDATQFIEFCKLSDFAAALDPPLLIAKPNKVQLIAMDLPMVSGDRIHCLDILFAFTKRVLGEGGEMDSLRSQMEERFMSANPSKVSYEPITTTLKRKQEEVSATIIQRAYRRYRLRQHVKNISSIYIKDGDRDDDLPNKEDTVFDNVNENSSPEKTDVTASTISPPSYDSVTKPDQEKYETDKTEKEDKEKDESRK

Question: Which “Inhibition of NaV1.7 current in AAV-NaV1.7-CRS transfected DRG neurons” value [1] does the source give for O=C1NC(=NS(=O)(=O)c2cccc3ccccc23)S/C1=C\c1ccc(Br)cc1 [Pitstop2] here?
Answer: The value was “rescued”.

Question: What about the “Decrease of sodium currents imposed by Myr-TAT-NaV1.7-CRS” value [2] of the same compound?
Answer: Its value is “rescued”.
